Measurements as given in the supplement of paper PMC10307832.

What was measured:
Experiment in all cases: relative viability (nuclei count vs DMSO), 5 days (fraction); higher = more cells survive
201T = test system: 201T
Method in brief: (§1)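 The day after seeding in 1536-well plates, lung cancer cell lines were treated by pin tool with a single drug, or with a fixed anchor-drug dose together with five library-drug doses (not always all listed) in √10 steps. After 5 days, a combined fix-and-stain solution (final 0.05% Triton X-100, 1% formaldehyde, 1 ug/ml Hoechst) was added. Nuclei counted on 4× images gave relative viability as treated counts over vehicle counts, reported as the median of duplicate plates.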

A-427 = test system: A-427
Method in brief: as §1

COR-L23 = test system: COR-L23
Method in brief: as §1

H3255 = test system: H3255
Method in brief: as §1

HCC-44 = test system: HCC-44
Method in brief: as §1

LC-2-ad = test system: LC-2-ad
Method in brief: as §1

LCLC-103H = test system: LCLC-103H
Method in brief: as §1

LCLC-97TM1 = test system: LCLC-97TM1
Method in brief: as §1

LU99A = test system: LU99A
Method in brief: as §1

NCI-H1563 = test system: NCI-H1563
Method in brief: as §1

NCI-H1650 = test system: NCI-H1650
Method in brief: as §1

NCI-H2228 = test system: NCI-H2228
Method in brief: as §1

NCI-H2347 = test system: NCI-H2347
Method in brief: as §1

NCI-H23 = test system: NCI-H23
Method in brief: as §1

NCI-H460 = test system: NCI-H460
Method in brief: as §1

NCI-H596 = test system: NCI-H596
Method in brief: as §1

NCI-H727 = test system: NCI-H727
Method in brief: as §1

PC-14 = test system: PC-14
Method in brief: as §1

PC-3 [JPC-3] = test system: PC-3 [JPC-3]
Method in brief: as §1

SW 1573 = test system: SW 1573
Method in brief: as §1

## O=c1cc(N2CCOCC2)oc2c(-c3cccc4c3sc3ccccc34)cccc12 + CC(C)C[C@H](NC(=O)[C@H](Cc1ccccc1)NC(=O)c1cnccn1)B(O)O [Bortezomib] (partner 0.002 µM)
201T; first compound 0.01 µM
  relative viability: 1.07
201T; first compound 0.03162 µM
  relative viability: 1.09
201T; first compound 0.1 µM
  relative viability: 0.957
201T; first compound 0.3162 µM
  relative viability: 1.08
201T; first compound 1 µM
  relative viability: 1.1
A-427; first compound 0.01 µM
  relative viability: 0.991
A-427; first compound 0.03162 µM
  relative viability: 1.04
A-427; first compound 0.1 µM
  relative viability: 1.03
A-427; first compound 0.3162 µM
  relative viability: 0.871
A-427; first compound 1 µM
  relative viability: 1.03
COR-L23; first compound 0.01 µM
  relative viability: 1.03
COR-L23; first compound 0.03162 µM
  relative viability: 1
COR-L23; first compound 0.1 µM
  relative viability: 1.09
COR-L23; first compound 0.3162 µM
  relative viability: 0.904
COR-L23; first compound 1 µM
  relative viability: 1.03
H3255; first compound 0.01 µM
  relative viability: 0.696
H3255; first compound 0.03162 µM
  relative viability: 0.806
H3255; first compound 0.1 µM
  relative viability: 0.761
H3255; first compound 0.3162 µM
  relative viability: 0.854
H3255; first compound 1 µM
  relative viability: 0.604
HCC-44; first compound 0.01 µM
  relative viability: 0.889
HCC-44; first compound 0.03162 µM
  relative viability: 0.875
HCC-44; first compound 0.1 µM
  relative viability: 0.906
HCC-44; first compound 0.3162 µM
  relative viability: 0.881
HCC-44; first compound 1 µM
  relative viability: 0.896
LC-2-ad; first compound 0.01 µM
  relative viability: 1.15
LC-2-ad; first compound 0.1 µM
  relative viability: 1.09
LC-2-ad; first compound 0.3162 µM
  relative viability: 0.993
LC-2-ad; first compound 1 µM
  relative viability: 1.05
LCLC-103H; first compound 0.01 µM
  relative viability: 1.16
LCLC-103H; first compound 0.03162 µM
  relative viability: 1.04
LCLC-103H; first compound 0.1 µM
  relative viability: 0.954
LCLC-103H; first compound 0.3162 µM
  relative viability: 1.04
LCLC-103H; first compound 1 µM
  relative viability: 0.877
LCLC-97TM1; first compound 0.01 µM
  relative viability: 0.678
LCLC-97TM1; first compound 0.03162 µM
  relative viability: 0.535
LCLC-97TM1; first compound 0.1 µM
  relative viability: 0.473
LCLC-97TM1; first compound 0.3162 µM
  relative viability: 0.751
LCLC-97TM1; first compound 1 µM
  relative viability: 0.406
LU99A; first compound 0.01 µM
  relative viability: 1.25
LU99A; first compound 0.03162 µM
  relative viability: 1.11
LU99A; first compound 0.1 µM
  relative viability: 1.19
LU99A; first compound 0.3162 µM
  relative viability: 1.03
LU99A; first compound 1 µM
  relative viability: 1.29
NCI-H1563; first compound 0.01 µM
  relative viability: 1
NCI-H1563; first compound 0.03162 µM
  relative viability: 0.809
NCI-H1563; first compound 0.1 µM
  relative viability: 0.9
NCI-H1563; first compound 0.3162 µM
  relative viability: 0.734
NCI-H1563; first compound 1 µM
  relative viability: 0.762
NCI-H1650; first compound 0.03162 µM
  relative viability: 0.243
NCI-H1650; first compound 0.1 µM
  relative viability: 0.193
NCI-H1650; first compound 0.3162 µM
  relative viability: 0.219
NCI-H1650; first compound 1 µM
  relative viability: 0.175
NCI-H2228; first compound 0.03162 µM
  relative viability: 0.794
NCI-H2228; first compound 0.1 µM
  relative viability: 0.926
NCI-H2228; first compound 0.3162 µM
  relative viability: 1.33
NCI-H2228; first compound 1 µM
  relative viability: 1.14
NCI-H2347; first compound 0.01 µM
  relative viability: 1.15
NCI-H2347; first compound 0.03162 µM
  relative viability: 1.12
NCI-H2347; first compound 0.1 µM
  relative viability: 0.838
NCI-H2347; first compound 0.3162 µM
  relative viability: 0.835
NCI-H2347; first compound 1 µM
  relative viability: 0.839
NCI-H23; first compound 0.01 µM
  relative viability: 1.13
NCI-H23; first compound 0.03162 µM
  relative viability: 1.08
NCI-H23; first compound 0.3162 µM
  relative viability: 1.01
NCI-H23; first compound 1 µM
  relative viability: 0.946
NCI-H460; first compound 0.01 µM
  relative viability: 1.01
NCI-H460; first compound 0.03162 µM
  relative viability: 1.13
NCI-H460; first compound 0.1 µM
  relative viability: 1.3
NCI-H460; first compound 0.3162 µM
  relative viability: 1.06
NCI-H460; first compound 1 µM
  relative viability: 1.07
NCI-H596; first compound 0.01 µM
  relative viability: 0.897
NCI-H596; first compound 0.03162 µM
  relative viability: 1.07
NCI-H596; first compound 0.1 µM
  relative viability: 1.37
NCI-H596; first compound 0.3162 µM
  relative viability: 1.06
NCI-H596; first compound 1 µM
  relative viability: 1.08
NCI-H727; first compound 0.01 µM
  relative viability: 0.961
NCI-H727; first compound 0.03162 µM
  relative viability: 0.937
NCI-H727; first compound 0.1 µM
  relative viability: 0.764
NCI-H727; first compound 0.3162 µM
  relative viability: 0.84
NCI-H727; first compound 1 µM
  relative viability: 0.79
PC-14; first compound 0.01 µM
  relative viability: 0.954
PC-14; first compound 0.03162 µM
  relative viability: 0.763
PC-14; first compound 0.1 µM
  relative viability: 0.868
PC-14; first compound 0.3162 µM
  relative viability: 0.772
PC-14; first compound 1 µM
  relative viability: 0.864
PC-3 [JPC-3]; first compound 0.01 µM
  relative viability: 0.824
PC-3 [JPC-3]; first compound 0.03162 µM
  relative viability: 0.744
PC-3 [JPC-3]; first compound 0.1 µM
  relative viability: 0.745
PC-3 [JPC-3]; first compound 0.3162 µM
  relative viability: 0.749
PC-3 [JPC-3]; first compound 1 µM
  relative viability: 0.862
SW 1573; first compound 0.01 µM
  relative viability: 1.32
SW 1573; first compound 0.03162 µM
  relative viability: 0.985
SW 1573; first compound 0.1 µM
  relative viability: 1.07
SW 1573; first compound 0.3162 µM
  relative viability: 1.12
SW 1573; first compound 1 µM
  relative viability: 0.952
